Where two headings read alike, the source gives them in different places.
Assays:
[1] = Trough plasma concentration of budiodarone during b.i.d. dosing cycles and washout; format: in vivo, patients
Procedure: (§1) It is noted that budiodarone concentrations used in the examples below include both the free acid and the free base versions of budiodarone.
(§2) In this example, patients were selected with long episodes of either paroxysmal or persistent AFib. Each of the patients was implanted with a pacemaker which monitored their heart rhythm. Patients were then evaluated for disease progression by monitoring their heart rhythm without budiodarone treatment in order to generate a baseline level of the duration of episodes of AFib. The baseline data was collected over two weeks. Patients were then given incremental doses of budiodarone at 200 mg b.i.d; 400 mg b.i.d.; 600 mg b.i.d.; and 800 mg b.i.d. where each dose was maintained for 2 weeks for a total of 4 treatment periods. A two-week washout period was employed after the completion of the 800 mg b.i.d. treatment period, wherein a washout period is the time after the last treatment to avoid misinterpreting observations about study-related treatments that may have been due to prior therapies. Pacemaker data were downloaded on days 8 and 14 of each two-week cycle and averages for each test period are shown. Blood was collected during each cycle and tested for the concentration of budiodarone.

[2] = Impact of food on plasma budiodarone concentration, fasting versus fed (FIG. 2); format: in vivo, patients
Procedure: This example evaluates the impact on plasma budiodarone concentrations based on a fasting or fed patient. In this example, patients were either fasting or fed before the administration of budiodarone. After budiodarone administration, blood was collected from the patients, and the plasma concentration of budiodarone was determined. FIG. 2 illustrates that in the same dosing of budiodarone, the uptake of budiodarone increased as evidenced by the Cmax values.

[3] = cited from earlier work
[4] = Budiodarone concentrations in plasma over time after different single doses (FIG. 1); format: in vivo, patients
Procedure: as §1
In this example, plasma concentrations of budiodarone were evaluated using different single-dosing amounts of the drug. […] The resulting data was placed on a graph and the data for each concentration provided for both a Cmax for the dose employed as well as a trough value at 6 hours.

[5] = test system: patients with long episodes of either paroxysmal or persistent AFib; assay: Duration of AFib episodes under incremental b.i.d. doses of budiodarone (pacemaker monitoring); format: in vivo; conditions: for Average Episode duration: baseline 4.8 hrs
Procedure: as §2

CC[C@H](C)OC(=O)Cc1oc2ccccc2c1C(=O)c1cc(I)c(OCCN(CC)CC)c(I)c1 [budiodarone, (S)-sec-butyl2-(3-(4-(2-(diethylamino)ethoxy)-3,5-diiodobenzoyl)benzofuran-2-yl)acetate]
Trough Pk levels ng/ml in plasma ([1]; 200 mg bid, doses approximately 12 hours apart): 2.4 +/ ng/ml
Trough Pk levels ng/ml in plasma ([1]; 400 mg bid, doses approximately 12 hours apart): 5.2 +/ ng/ml
Trough Pk levels ng/ml in plasma ([1]; 600 mg bid, doses approximately 12 hours apart): 13.1 +/ ng/ml
Trough Pk levels ng/ml in plasma ([1]; 800 mg bid, doses approximately 12 hours apart): 19.8 +/ ng/ml
washout trough concentration as share of the trough concentration at 800 mg b.i.d. ([1]; 2 weeks post 800 mg b.i.d.): about 1.5%
concentration at 12 h ([1]; human, plasma, 800 mg b.i.d., doses approximately 12 hours apart, read-out: Trough Pk levels ng/ml in plasma): 19.8 ng/mL
concentration at 2 weeks ([1]; human, plasma, 800 mg b.i.d., washout, 2 weeks post 800 mg bid, read-out: Trough Pk levels ng/ml in plasma): 0.3 ng/mL
Trough Pk levels ng/ml in plasma ([1]; washout, 2 weeks post 800 mg bid): 0.3 +/ ng/ml
shift in time of Cmax in the fed group versus fasted patients ([2]; fed versus fasted patients): about an hour later
uptake of budiodarone as evidenced by the Cmax values, fed versus fasting ([2]; same dosing of budiodarone, fed versus fasting patients): increased
effective plasma level within 60 min, maintained for up to 6 hours ([2]; single oral dose of 400-1,000 mg, whether or not taken with food): > 50 ng/mL
half-life compared with amiodarone [3]: much shorter half-life than amiodarone
effect on QT interval ([3]; while reducing episodes of long-duration AFib): without a significant increase in the QT interval
plasma concentration maintained for over 6 hours ([4]; each single dose at or above 400 mg): greater than 13 ng/mL
plasma level maintained for at least 6 hours ([4]; high dosing, bolus such as 1,000 mg): above 13 ng/mL
plasma concentration for up to about 6 hours ([4]; high single dose (about 800 mg to 1200 mg), see FIG. 1): over 40 ng/mL
Cmax ([4]; human, plasma, oral, 1000 mg, bolus such as 1,000 mg, read-out: Cmax concentration in plasma): > 300 ng/mL
concentration at 8 h ([4]; human, plasma, oral, 1000 mg, bolus such as 1,000 mg, read-out: plasma concentration in about 8 hours): < 20 ng/mL
Cmax ([4]; human, plasma, oral, each single dose at or above 400 mg, plasma, read-out: Cmax): > 50 ng/mL
Cmax ([4]; human, plasma, oral, high single dose (about 800 mg to 1200 mg), see FIG. 1, read-out: Cmax): ≤ 350 ng/mL
concentration at 6 h ([4]; human, plasma, oral, single dose at 800 mg or 1,000 mg): ~50 ng/mL
concentration at 8 h ([4]; human, plasma, oral, single dose at 800 mg or 1,000 mg, read-out: plasma concentration at 8 hours): ≥ 15 ng/mL
Average Episode duration ([5]; 200 mg bid for 2 weeks, average of pacemaker downloads on days 8 and 14): 1.7 h
Average Episode duration ([5]; 400 mg bid for 2 weeks): 0.6 h
longest average duration of AFib ([5]; 600 mg b.i.d.): 6 min
Average Episode duration ([5]; 600 mg bid for 2 weeks): 0.1 h
Average Episode duration ([5]; 800 mg bid for 2 weeks): 0.5 h
maximum duration AFib levels ([5]; all dosing levels from 400 mg b.i.d. to 800 mg b.i.d.): less than 45 minutes
Average Episode duration ([5]; two-week washout after 800 mg bid): 2.4
